Measured values from patent US12122816B2, “Long acting peptide tyrosine tyrosine (PYY) analogs and methods of use” (Intarcia Therapeutics, Inc., priority 2020, dated 2024).
Starred links: 1 amine or outer side, 2 acyl side, 3 side chain; linkers in the order of their positions; H or OH if unused. Non-standard residues stand in square brackets, D forms with d. Residues, ends and D or L forms follow the SMILES beside them. Groups on a side chain read outwards from the residue. *: point of attachment. C20 diacid = O=C(O)CCCCCCCCCCCCCCCCCCC(=O)*; γGlu = O=C(O)[C@H](CCC(=O)[*:2])N[*:1]; NMeY = CN[C@@H](Cc1ccc(O)cc1)C(=O)O

Assays:
Assay in all cases: NPY receptor functional assay (cAMP, HEK-CNG cells, ACTOne membrane potential dye)
Type in all cases: cell-based
[1] = target: human Y4 receptor (Homo sapiens, UniProt P50391); conditions: standard PP, species (human or rat) not given
Text: (§1) The NPY family of G-protein coupled receptors include Y1, Y2, Y4, and Y5 in humans and rats. […] Following agonist binding, the receptor-G protein complex activates a downstream intracellular signaling cascade which leads to inhibition of adenylate cyclase and a reduction in intracellular cAMP levels.
(§2) HEK-CNG cells stably expressing the human or rat Y1, Y2, Y4 or Y5 receptors (Codex Biosolutions) were used to characterize the functional potency of peptide agonists using the ActOne™ membrane potential dye kit (Codex Biosolutions). In addition to each NPY receptor, each cell line encodes a proprietary exogenous Cyclic Nucleotide-Gated (CNG) channel (Codex Biosolutions). The channel is activated by elevated intracellular levels of cAMP, resulting in ion flux and cell membrane depolarization which can be detected with a calcium sensitive dye or fluorescent membrane potential (MP) dye. Cells were carried in growth media containing 90% DMEM, 10% FBS, 250 mcg/mL G418 and 1 mcg/mL puromycin for no more than 15 passages.
(§3) Prior to testing, cells were counted and dispensed at 14,000 cells per well (Y1, Y4 and Y5) or 28,000 cells per well (Y2) into black 384 well Poly-D-Lysine plates at 20 mcL per well. Covered plates were then incubated at room temperature for 30 minutes followed by an overnight incubation at 37° C. in 5% C02. The following day, media was removed and wells were washed once with 40 mcL Dulbecco's phosphate buffered saline. […] Ten microliters of experimental peptide or peptide standard was added in triplicate to wells and incubated for 50 minutes at room temperature in the dark. Following this incubation step, plates were read again as before (final read).
(§4) NPY receptor activation, leading to a reduction in intracellular cAMP levels, is detected as a decrease in isoproteranol induced fluorescent signal. Peptide standard and experimental values were initially transformed in excel using the formula: final read/initial read. Transformed values were then normalized to receptor specific standard values (1×10−13 M minimum and 1×10−7 M maximum) using the formula: (test value−standard minavg)/(standard maxavg−standard minavg)*100. […] Normalized data was analyzed from triplicate tests and used to estimate the EC50 for each test peptide on each receptor. Data was fit in GraphPad Prism software (v8.2.1) using a 3-parameter logistic curve model: Y=Bottom+(Top−Bottom)/(1+10^((LogEC50−X))). EC50 values were converted to pEC50 values using the formula: pEC50=−Log(EC50).

[2] = target: T1, human Y2 receptor (Homo sapiens, UniProt P49146); conditions: NPY2R pEC50, HEK-CNG cells; standard PYY(3-36); species (human or rat) not given
T1 sequence (P49146 1-381): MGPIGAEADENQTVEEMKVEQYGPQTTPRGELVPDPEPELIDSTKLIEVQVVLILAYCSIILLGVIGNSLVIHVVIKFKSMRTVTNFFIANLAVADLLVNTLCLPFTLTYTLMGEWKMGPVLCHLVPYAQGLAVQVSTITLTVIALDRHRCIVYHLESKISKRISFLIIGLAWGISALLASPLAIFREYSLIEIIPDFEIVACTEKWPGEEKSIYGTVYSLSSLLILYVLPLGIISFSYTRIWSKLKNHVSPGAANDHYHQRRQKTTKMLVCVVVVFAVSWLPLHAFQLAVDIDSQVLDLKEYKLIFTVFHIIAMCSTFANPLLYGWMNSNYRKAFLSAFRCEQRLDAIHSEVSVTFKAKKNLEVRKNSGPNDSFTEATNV
Text: as §1, §2, §3, §4

[3] = target: T2, human Y5 receptor (Homo sapiens, UniProt Q15761); conditions: NPY5R pEC50, HEK-CNG cells; standard NPY; species (human or rat) not given
T2 sequence (Q15761 1-445): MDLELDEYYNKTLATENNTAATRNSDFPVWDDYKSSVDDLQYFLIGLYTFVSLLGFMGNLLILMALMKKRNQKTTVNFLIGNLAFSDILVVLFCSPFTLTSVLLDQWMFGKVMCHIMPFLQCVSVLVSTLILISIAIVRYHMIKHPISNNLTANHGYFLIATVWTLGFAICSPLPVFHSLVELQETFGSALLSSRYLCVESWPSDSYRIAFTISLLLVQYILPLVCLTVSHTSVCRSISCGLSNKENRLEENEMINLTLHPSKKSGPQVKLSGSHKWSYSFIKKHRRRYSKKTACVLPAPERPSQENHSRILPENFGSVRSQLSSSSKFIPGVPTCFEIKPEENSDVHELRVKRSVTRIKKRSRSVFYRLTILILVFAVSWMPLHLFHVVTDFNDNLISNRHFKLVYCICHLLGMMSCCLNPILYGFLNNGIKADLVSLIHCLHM
Text: as §1, §2, §3, §4

human Y4 receptor, sequence (P50391 whole entry): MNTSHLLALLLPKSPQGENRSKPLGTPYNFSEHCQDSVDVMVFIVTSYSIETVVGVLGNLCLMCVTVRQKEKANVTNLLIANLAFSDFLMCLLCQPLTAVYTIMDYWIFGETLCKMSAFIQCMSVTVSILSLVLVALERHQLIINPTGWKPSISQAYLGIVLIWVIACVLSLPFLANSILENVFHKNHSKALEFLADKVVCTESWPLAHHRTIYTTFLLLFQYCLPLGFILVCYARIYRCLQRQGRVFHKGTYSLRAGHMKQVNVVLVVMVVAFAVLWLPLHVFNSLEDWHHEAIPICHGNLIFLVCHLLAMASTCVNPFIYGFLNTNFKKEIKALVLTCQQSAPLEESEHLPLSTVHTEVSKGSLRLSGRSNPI

| Structure (SMILES) | NPY4R pEC50 [1] | EC50 [2] [nM] | EC50 [3] [nM] |
| --- | --- | --- | --- |
| CC(C)C[C@H](NC(=O)[C@H](CC(=O)O)NC(=O)[C@H](C)NC(=O)[C@H](Cc1ccc(O)cc1)NC(=O)[C@H](Cc1ccc(O)cc1)NC(=O)[C@H](CCCNC(=N)N)NC(=O)[C@H](CC(N)=O)NC(=O)[C@H](Cc1c[nH]c2ccccc12)NC(=O)[C@H](CCC(=O)O)NC(=O)[C@H](CCC(=O)O)NC(=O)[C@@H]1CCCN1C(=O)[C@H](CO)NC(=O)[C@H](C)NC(=O)[C@H](CC(=O)O)NC(=O)[C@H](CCCCN)NC(=O)CNC(=O)[C@@H]1CCCN1C(=O)[C@H](C)NC(=O)[C@H](CCC(=O)O)NC(=O)[C@@H]1CCCN1C(=O)[C@H](CCCCN)NC(=O)[C@@H]1CCCN1)C(=O)N[C@@H](CCCNC(=N)N)C(=O)N[C@@H](Cc1c[nH]cn1)C(=O)N[C@@H](Cc1ccc(O)cc1)C(=O)N[C@@H](CC(C)C)C(=O)N[C@@H](CC(N)=O)C(=O)N[C@@H](Cc1c[nH]c2ccccc12)C(=O)N[C@@H](CC(C)C)C(=O)N[C@H](C(=O)N[C@@H](CCCNC(=N)N)C(=O)N[C@@H](CCCCNC(=O)CC[C@H](NC(=O)CC[C@H](NC(=O)CCCCCCCCCCCCCCCCCCC(=O)O)C(=O)O)C(=O)O)C(=O)N[C@@H](CCCNC(=N)N)C(=O)N[C@@H](Cc1ccccc1)C(N)=O)[C@@H](C)O [Compound A50] | inactive | – | – |
| CC(C)C[C@H](NC(=O)[C@H](Cc1ccc(O)cc1)NC(=O)[C@H](Cc1c[nH]cn1)NC(=O)[C@H](CCCNC(=N)N)NC(=O)[C@H](C)NC(=O)[C@H](CC(=O)O)NC(=O)[C@H](C)NC(=O)[C@H](Cc1ccc(O)cc1)NC(=O)[C@H](Cc1ccc(O)cc1)NC(=O)[C@H](CCCNC(=N)N)NC(=O)[C@H](CC(N)=O)NC(=O)[C@H](CC(C)C)NC(=O)[C@H](CCC(=O)O)NC(=O)[C@H](CCC(=O)O)NC(=O)[C@@H]1CCCN1C(=O)[C@H](CO)NC(=O)[C@H](C)NC(=O)[C@H](CC(=O)O)NC(=O)[C@H](CCCCN)NC(=O)[C@H](CCCCNC(=O)CC[C@H](NC(=O)CC[C@H](NC(=O)CCCCCCCCCCCCCCCCCCC(=O)O)C(=O)O)C(=O)O)NC(=O)[C@@H]1CCCN1C(=O)[C@H](C)NC(=O)[C@H](CCC(=O)O)NC(=O)[C@@H]1CCCN1C(=O)[C@H](CCCCN)NC(=O)[C@@H]1CCCN1)C(=O)N[C@@H](CC(N)=O)C(=O)N[C@@H](Cc1c[nH]c2ccccc12)C(=O)N[C@@H](CC(C)C)C(=O)N[C@H](C(=O)N[C@@H](CCCNC(=N)N)C(=O)N[C@@H](CCC(N)=O)C(=O)N[C@@H](CCCNC(=N)N)C(=O)N(C)[C@@H](Cc1ccc(O)cc1)C(N)=O)[C@@H](C)O [Compound A63] (H-PKPEAPK([γGlu-γGlu-C20 diacid])KDASPEELNRYYADARHYLNWLTRQR[NMeY]-NH2; N-terminus assumed) | inactive | 31.6 | – |
| CC(C)C[C@H](NC(=O)[C@H](Cc1ccc(O)cc1)NC(=O)[C@H](Cc1c[nH]cn1)NC(=O)[C@H](CCCNC(=N)N)NC(=O)[C@H](C)NC(=O)[C@H](CC(=O)O)NC(=O)[C@H](C)NC(=O)[C@H](Cc1ccc(O)cc1)NC(=O)[C@H](Cc1ccc(O)cc1)NC(=O)[C@H](CCCNC(=N)N)NC(=O)[C@H](CCCCNC(=O)CC[C@H](NC(=O)CC[C@H](NC(=O)CCCCCCCCCCCCCCCCCCC(=O)O)C(=O)O)C(=O)O)NC(=O)[C@H](Cc1c[nH]c2ccccc12)NC(=O)[C@H](CCC(=O)O)NC(=O)[C@H](CCC(=O)O)NC(=O)[C@@H]1CCCN1C(=O)[C@H](CO)NC(=O)[C@H](C)NC(=O)[C@H](CC(=O)O)NC(=O)[C@H](CCCCN)NC(=O)CNC(=O)[C@@H]1CCCN1C(=O)[C@H](C)NC(=O)[C@H](CCC(=O)O)NC(=O)[C@@H]1CCCN1C(=O)[C@H](CCCCN)NC(=O)[C@@H]1CCCN1)C(=O)N[C@@H](CC(N)=O)C(=O)N[C@@H](Cc1c[nH]c2ccccc12)C(=O)N[C@@H](CC(C)C)C(=O)N[C@H](C(=O)N[C@@H](CCCNC(=N)N)C(=O)N[C@@H](CCC(N)=O)C(=O)N[C@@H](CCCNC(=N)N)C(=O)N(C)[C@@H](Cc1ccc(O)cc1)C(N)=O)[C@@H](C)O [Compound A9] | inactive | 0.251 | – |
| CC(C)C[C@H](NC(=O)[C@H](CC(=O)O)NC(=O)[C@H](C)NC(=O)[C@H](Cc1ccc(O)cc1)NC(=O)[C@H](Cc1ccc(O)cc1)NC(=O)[C@H](CCCNC(=N)N)NC(=O)[C@H](CC(N)=O)NC(=O)[C@H](Cc1c[nH]c2ccccc12)NC(=O)[C@H](CCC(=O)O)NC(=O)[C@H](CCC(=O)O)NC(=O)[C@@H]1CCCN1C(=O)[C@H](CO)NC(=O)[C@H](C)NC(=O)[C@H](CC(=O)O)NC(=O)[C@H](CCCCN)NC(=O)CNC(=O)[C@@H]1CCCN1C(=O)[C@H](C)NC(=O)[C@H](CCC(=O)O)NC(=O)[C@@H]1CCCN1C(=O)[C@H](CCCCN)NC(=O)[C@@H]1CCCN1)C(=O)N[C@@H](CCCNC(=N)N)C(=O)N[C@@H](Cc1c[nH]cn1)C(=O)N[C@@H](Cc1ccc(O)cc1)C(=O)N[C@@H](CC(C)C)C(=O)N[C@@H](CCCCNC(=O)CC[C@H](NC(=O)CC[C@H](NC(=O)CCCCCCCCCCCCCCCCCCC(=O)O)C(=O)O)C(=O)O)C(=O)N[C@@H](Cc1c[nH]c2ccccc12)C(=O)N[C@@H](CC(C)C)C(=O)N[C@H](C(=O)N[C@@H](CCCNC(=N)N)C(=O)N[C@@H](CCC(N)=O)C(=O)N[C@@H](CCCNC(=N)N)C(=O)N[C@@H](Cc1ccccc1)C(N)=O)[C@@H](C)O [Compound A51] | inactive | – | – |
| CC(C)C[C@H](NC(=O)[C@H](CC(=O)O)NC(=O)[C@H](CCCCN)NC(=O)[C@H](Cc1ccc(O)cc1)NC(=O)[C@H](Cc1ccc(O)cc1)NC(=O)[C@H](CCCNC(=N)N)NC(=O)[C@H](CC(N)=O)NC(=O)[C@H](Cc1c[nH]c2ccccc12)NC(=O)[C@H](CCC(=O)O)NC(=O)[C@H](CCCCN)NC(=O)[C@@H]1CCCN1C(=O)[C@H](CO)NC(=O)[C@H](C)NC(=O)[C@H](CC(=O)O)NC(=O)[C@H](CCC(=O)O)NC(=O)CNC(=O)[C@@H]1CCCN1C(=O)[C@H](CCCCNC(=O)CC[C@H](NC(=O)CC[C@H](NC(=O)CCCCCCCCCCCCCCCCCC(=O)O)C(=O)O)C(=O)O)NC(=O)[C@H](CCC(=O)O)NC(=O)[C@@H]1CCCN1C(=O)[C@H](CCCCN)NC(=O)[C@@H]1CCCN1)C(=O)N[C@@H](CCCNC(=N)N)C(=O)N[C@@H](Cc1c[nH]cn1)C(=O)N[C@@H](Cc1ccc(O)cc1)C(=O)N[C@@H](CC(C)C)C(=O)N[C@@H](CC(N)=O)C(=O)N[C@@H](Cc1c[nH]c2ccccc12)C(=O)N[C@@H](CC(C)C)C(=O)N[C@H](C(=O)N[C@@H](CCCNC(=N)N)C(=O)N[C@@H](CCC(N)=O)C(=O)N[C@@H](CCCNC(=N)N)C(=O)N[C@@H](Cc1ccccc1)C(N)=O)[C@@H](C)O [Compound A36] | – | 0.0126 | 2 |
